# Measurements reported in article PMC3996151, “Safety and pharmacological characterization of the molecular tweezer CLR01 – a broad-spectrum inhibitor of amyloid proteins’ toxicity” (BMC Pharmacology & Toxicology, 2014).
# Marks after values point to notes of the source that are not given here.
# What was measured:
# [1] = system: C57BL/6J mice; experiment: Acute toxicity: single IP injection, behaviour, histopathology and serum chemistry after 24 h; type: in vivo, mouse; conditions: for Alanine aminotransferase / Albumin / Alkaline phosphatase / Aspartate aminotransferase / Blood urea nitrogen / Cholesterol / Creatinine / Glucose / Lactate dehydrogenase / Total bilirubin / Total protein: serum, acute, mean
# Experimental: For acute-toxicity studies, 2-m old C57BL/6J mice were administered saline-vehicle, 10 mg/kg, or 100 mg/kg CLR01 by a single intraperitoneal (IP) injection. The mice were sacrificed 24-h after the injection. For chronic toxicity studies, 2-m old C57BL/6J mice were administered saline-vehicle, 3 mg/kg, or 10 mg/kg CLR01 by daily IP injection for 30 days. Acute-study mice were visually monitored for 1 h after injection and then every 50 min for 10 min over the first 6 h of the experiment for changes in activity and behavior. The mice also were monitored every 110 min for 10 min during the last 6 h of the experiment until they were sacrificed. Chronic-study mice were monitored for 1 h after injection and then 3 times a day for 10 min each, every day of the first week. During that week there were no appreciable changes in the behavior, appearance, or weight of the mice. Therefore, monitoring was reduced to twice a day during the remainder of the experiment. On all occasions, the mice were monitored for any signs of severe toxicity, including bruising or bleeding, pale mucous membranes or extremities, diarrhea, dehydration, neurological signs, such as difficulty ambulating or paralysis, tachypnea or dyspnea, or abdominal distension.
# Following the treatment, mice were anesthetized with pentobarbital and blood was collected by cardiac puncture and placed in tubes containing a clot activator for serum separation (Capiject T-MG tubes, Terumo Medical Products, Somerset, NJ). Then, the lungs were filled through the trachea with 4% paraformaldehyde to prevent collapse, and tissues (brain, heart-lung, liver, kidney, and spleen) were collected and fixed for 72 h in 4% paraformaldehyde at a ratio of ~1:10 tissue:fixative (v/v). Tissues then were transferred into a 70%-ethanol solution and transferred to the UCLA Mouse Pathology Core for paraffin embedding, sectioning, and tissue histopathology analysis. Serum was analyzed by the UCLA Division of Laboratory Animal Medicine (DLAM) Animal Serology & Molecular Diagnostic Laboratory for an 11-panel serum chemical analysis using the ACE Alera Clinical Chemistry system (Alfa Wassermann Diagnostic Technologies, West Caldwell, NJ). The panel included: alanine aminotransferase, aspartate aminotransferase, albumin, alkaline phosphatase, creatinine, total bilirubin, lactate dehydrogenase, blood urea nitrogen, cholesterol, total protein, and glucose.
# If CLR01 indeed operates by a process-specific mechanism and remodels the abnormal aggregation of amyloidogenic proteins at substantially lower concentrations than concentrations that would perturb normal physiological processes, one would expect the compound to have a high therapeutic index. To calculate the therapeutic index, a lethal dose must be reached. […] The next rational step was to test the safety margin of CLR01 in vivo. Based on the in vitro and cell culture data, we expected that 100 mg/kg would be lethal to mice and therefore used it as the highest dose in our safety-evaluation experiments. We assessed the safety of CLR01 in 2-m old, male, WT mice either 24 h following a single IP injection of 10 or 100 mg/kg (acute administration) or after daily IP injection of 3 or 10 mg/kg for 30 days (chronic administration). Following euthanasia, serum was collected for chemical analysis and tissues were harvested for histopathology evaluation.
# [2] = In vitro dephosphorylation by brain homogenate (inorganic phosphate release); type: in vitro ADME, mouse; conditions: 50 nmol CLR01, 1.5 mg mouse-brain homogenate, 60 min at 60°C
# Experimental: Potential dephosphorylation of CLR01 was analyzed by incubating 100 nmol CLR01 with 0.08 units of alkaline phosphatase (ALP; calf intestinal alkaline phosphatase, Promega, Madison, Wisconsin) for 60 min at 60°C. One enzymatic unit is defined as the amount of enzyme required for catalyzing the hydrolysis of 1 μmol of p-nitrophenylphosphate per minute. p-Nitrophenylphosphate disodium salt at 5–50 nmol (Fisher, Waltham, Massachusetts) was used for generation of a standard curve. The amount of inorganic phosphate generated was measured spectrophotometrically using an EnzChek Phosphate Assay kit (Life Technologies, Carlsbad, California) according to the manufacturer’s instructions on a DU-640 spectrophotometer (Beckman Coulter, Brea, California) at λ = 360 nm. Baseline values were subtracted from readings and compared to the standard curve resulting from serial ALP reactions to calculate the amount of inorganic phosphate. Similarly, potential dephosphorylation of CLR01 by brain homogenates was measured. For these experiments, one brain hemisphere was homogenized by sonication in the presence of cOmplete protease-inhibitor cocktail (Roche, Penzberg, Germany). Protein concentration was measured using a BCA Protein Assay Kit (Pierce, Rockford, Illinois). […]
# [3] = Solubility in aqueous solutions; type: physicochemical
# [4] = target: alcohol dehydrogenase (ADH); set-up: method as in PMID 18605724; conditions: ADH concentration of 208 nM; cited from earlier work
# [5] = target: Poly [ADP-ribose] polymerase 1 (PARP-1); set-up: method as in T. Schrader, unpublished results; conditions: enzyme concentration of 2.3 nM; ref T. Schrader, unpublished results; cited from earlier work
# [6] = system: cytochrome P450 system; set-up: method as in PMID 23183235; conditions: up to 10-μM, compared to rifampicin positive control; cited from earlier work
# [7] = set-up: method as in PMID 18605724, PMID 23750919; conditions: cited from earlier work
# [8] = set-up: method as in Lopes et al., submitted; conditions: SC pumps; ref Lopes et al., submitted; cited from earlier work
# [9] = system: primary neurons; set-up: method as in PMID 23183235; conditions: cited from earlier work
# [10] = 2-m old WT mice, 24 h after single IP dose 10 mg/kg, N = 8
# [11] = 2-m old WT mice, 24 h after single IP dose 100 mg/kg, N = 8
# [12] = 2-m old WT mice, 24 h after single IP dose 100 mg/kg, N = 8, p < 0.001 vs control
# [13] = 2-m old WT mice, 24 h after single IP dose 100 mg/kg, N = 8, p < 0.01 vs control
smiles,measurement,setting,value
O=P(O)(O)Oc1c2c(c(OP(=O)(O)O)c3c1C1CC3c3cc4c(cc31)C1CC4c3ccccc31)C1CC2c2cc3c(cc21)C1CC3c2ccccc21 [CLR01],Single non-lethal dose relative to the efficacious dose,[1]; 100 mg/kg single dose,"2,500 fold"
same,Alanine aminotransferase,[1]; [10],36.1 U/L
same,Albumin,[1]; [10],2.3 g/dL
same,Alkaline phosphatase,[1]; [10],126.1 U/L
same,Aspartate aminotransferase,[1]; [10],89.5 U/L
same,Blood urea nitrogen,[1]; [10],19.8 mg/dL
same,Cholesterol,[1]; [10],91.5 mg/dL
same,Creatinine,[1]; [10],0.2 mg/dL
same,Glucose,[1]; [10],297.8 mg/dL
same,Lactate dehydrogenase,[1]; [10],325.2 U/L
same,Total bilirubin,[1]; [10],0.2 mg/dL
same,Total protein,[1]; [10],3.7 g/dL
same,Albumin,[1]; [11],1.9 g/dL
same,Alkaline phosphatase,[1]; [11],101.5 U/L
same,Blood urea nitrogen,[1]; [11],22.0 mg/dL
same,Creatinine,[1]; [11],0.4 mg/dL
same,Total bilirubin,[1]; [11],0.3 mg/dL
same,Total protein,[1]; [11],3.6 g/dL
same,Alanine aminotransferase,[1]; [12],1282.9*** U/L
same,Glucose,[1]; [12],104.3*** mg/dL
same,Lactate dehydrogenase,[1]; [12],2439.8*** U/L
same,Aspartate aminotransferase,[1]; [13],565.3** U/L
same,Cholesterol,[1]; [13],20.8** mg/dL
same,Behavior (levels and type of activity and grooming),[1]; single IP 10 mg/kg,behaved indistinguishably from control mice
same,Incidence of liver degeneration and necrosis,"[1]; single IP 10 mg/kg, 24 h",one of eight
same,Duration of decreased activity and droopy eyelids in some mice,[1]; single IP 100 mg/kg,up to 2 h
same,Duration of signs of distress following the injection,[1]; single IP 100 mg/kg,~ 30 min
same,Behavior after injection,"[1]; single IP 100 mg/kg, 2-m old WT mice",obvious signs of distress
same,Survival,"[1]; single IP 100 mg/kg, 24 h",all the mice in the high-dose group survived
same,Liver histopathology,"[1]; single IP 100 mg/kg, 24 h, all mice, centrilobular and midlobular regions",liver degeneration and necrosis
same,"Histopathology of heart, lung, spleen and brain","[1]; single IP 10 or 100 mg/kg, 24 h",indistinguishable from those of control mice
same,Lethal dose,"[1]; single IP injection, mice",> 100 mg/kg
same,Inorganic phosphate released on incubation with brain homogenate,[2],no release of inorganic phosphate was detected
same,Solubility in aqueous solutions,[3],soluble at millimolar concentrations
same,IC50,[4],180 µM
same,IC50,[5],3.3 µM
same,Activation of the cytochrome P450 system,[6],Minimal activation
same,"Affinity for Arg relative to Lys, fold lower",[7],~ 10 fold
same,Administered CLR01 in the blood at steady-state,[8],0.7%
same,Protection of primary neurons from Aβ-induced effects,[9],"protected primary neurons from Aβ-induced decrease in synaptic spine density, basal synaptic activity, and long-term potentiation"
